Results reported in patent publication US4841067A, “Novel amino acid derivatives” (Kissei Pharmaceutical Co., Ltd., priority 1985, dated 1989).

Legend:
human renin = target: T1, human renin (Homo sapiens, UniProt P00797); assay: Human renin-sheep renin substrate reaction system in vitro (angiotensin I by radioimmunoassay); type: biochemical; details: pH 7.4, 37° C., 15 minutes, read-out: IC50 (molar concentration which produced 50% inhibition)
T1 sequence (P00797 67-406): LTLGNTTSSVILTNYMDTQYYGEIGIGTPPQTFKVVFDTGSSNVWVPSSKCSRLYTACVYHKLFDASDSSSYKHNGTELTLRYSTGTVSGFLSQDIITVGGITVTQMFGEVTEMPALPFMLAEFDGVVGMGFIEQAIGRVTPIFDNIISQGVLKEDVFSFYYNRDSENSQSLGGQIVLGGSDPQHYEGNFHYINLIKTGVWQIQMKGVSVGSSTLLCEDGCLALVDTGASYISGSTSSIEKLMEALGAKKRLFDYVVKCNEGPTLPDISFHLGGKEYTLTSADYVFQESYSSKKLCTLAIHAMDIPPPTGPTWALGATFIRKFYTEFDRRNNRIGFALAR
Method: Human renin-sheep renin substrate reaction system in vitro To a mixture containing 200 μl of a 125 mM pyrophosphate buffer (ph 7.4), 25 μl of a 20 mM aqueous solution of […] as an angiotensin converting enzyme inhibitor, 50 μl of semipurified sheep renin substrate (4400 ng angiotensin I/ml) 50 μl of dimethyl sulfoxide solution of a dipeptide of the present invention and 150 μl of deionized water was added 25 μl of purified human renin (20-30 ng angiotensin I/hr). The mixture was incubated for 15 minutes on a water bath at 37° C., and the reaction mixture was allowed to stand for 5 minutes on a water bath at 100° C. to stop the reaction. After cooling, 200 μl of the solution were taken up and the amount of angiotensin I produced by the addition of renin was determined by radioimmunoassay. The inhibitory effect was calculated by the following equation. [formula] As a control, the same procedure as above was carried out by using 50 μl of dimethyl sulfoxide alone in place of the 50 μl of dimethyl sulfoxide solution containing an amino acid derivative of the present invention. The molar concentration which produced 50% inhibition (IC50) was calculated from the inhibition value obtained, and the results are shown below.

marmoset = assay: Hypotensive effect in marmoset (furosemide-induced high renin state, i.v. injection); type: in vivo, common marmoset; details: 2.5 mg/kg i.v., conscious male marmoset, furosemide pretreated
Method: Hypotensive effect in marmoset
The experiment was carried out by using common marmoset as described in K. G. Hofbauer et al., Clinical and Experimental Hypertension-Theory and Practice, Vol. A5, No. 7 & 8 (1983), pages 1237-1247.
Furosemide was orally administered three times to common marmoset at 15 mg per kilogram per day every other day to create a high renin state. Blood pressure of consious marmoset was measured 2 days after the last administration of furosemide.
Measurement of blood pressure
Male common marmoset weighing 325 g was lightly anesthetized by ketamine hydrochloride (Ketalar, produced by Parke Davis, 20 mg/kg i.m.), and their carotid artery and vein exposed.. Catheters being filled with a heparin solution was subcutaneously inserted into the carotid artery and vein from the dorsum. After suturing of the opened part, the marmosets were placed on a heated mat. After complete recovery from the anesthesia, an amino acid derivative of the present invention (2.5 mg/kg) was intravenously injected through the venous catheter.
The arterial catheter was connected to a pressure transducer and blood pressure was recorded on the polygraph.

Row | SMILES | IC50 (human renin) | other results
1 | CNC(=O)C(O)[C@H](CC(C)C)NC(=O)[C@H](Cc1cnc[nH]1)NC(=O)C(CC(=O)NCCc1ccccc1)Cc1cccc2ccccc12 (mixture of isomers) [(2RS,3S)-3-{N-[(+)-2-(1-naphthylmethyl)-3-(phenethylcarbamoyl)propionyl]-L-histidyl}-amino-2-hydroxy-5-methylhexanoylmethylamide] | 700 nM | 
2 | COC(=O)[C@@H](O)[C@H](CC(C)C)NC(=O)[C@H](Cc1cnc[nH]1)NC(=O)C(CC(=O)NCCc1ccccc1)Cc1cccc2ccccc12 (single isomer, unassigned) | 1300 nM | 
3 | CC(C)C[C@H](NC(=O)[C@H](Cc1cnc[nH]1)NC(=O)C(CC(=O)NCCc1ccccc1)Cc1cccc2ccccc12)C(O)C(=O)N(C)C (single isomer, unassigned) | 2800 nM | 
4 | CNC(=O)C(O)[C@H](CC(C)C)NC(=O)[C@H](Cc1cnc[nH]1)NC(=O)C(CC(=O)NCCc1ccccc1)Cc1cccc2ccccc12 (single isomer, unassigned) [listing 1 of 2 here] | 4500 nM | 
5 | CC(C)C[C@H](NC(=O)[C@H](Cc1c[nH]cn1)NC(=O)C(CC(=O)NCCc1ccccc1)Cc1cccc2ccccc12)[C@@H](O)CCO (single isomer, unassigned) | 5900 nM | 
6 | COCC(O)[C@H](CC(C)C)NC(=O)[C@H](Cc1cnc[nH]1)NC(=O)C(CC(=O)NCCc1ccccc1)Cc1cccc2ccccc12 (single isomer, unassigned) [(2RS, 3S)-3-{N-(+)-2-(1-Naphthylmethyl)-3-(phenethylcarbamoyl)propionyl]-L-histidyl}amino-2-hydroxy-5-methylhexyl methyl ether] | 790 nM | 
7 | CC(C)C[C@H](NC(=O)[C@H](Cc1c[nH]cn1)NC(=O)C(CC(=O)NCCc1ccccc1)Cc1cccc2ccccc12)C(O)CO (single isomer, unassigned) [(2RS, 3S)-3-{N-[(+)-2-(1-naphthylmethyl)-3-(phenethylcarbamoyl)propionyl]-L-histidyl}amino-2-hydroxy-5-methylhexanol] | 590 nM | 
8 | CC(C)C[C@H](NC(=O)[C@H](Cc1cnc[nH]1)NC(=O)C(CC(=O)NCCc1ccccc1)Cc1cccc2ccccc12)C(O)COCc1ccccc1 (single isomer, unassigned) [(2RS, 3S)-3-{N-[(+)-2-(1-naphthylmethyl)-3-phenethylcarbamoyl)propionyl]-L-histidyl}amino-2-hydroxy-5-methylhexyl benzyl ether] | 470 nM | 
9 | CNC(=O)C[C@H](O)[C@H](CC(C)C)NC(=O)[C@H](Cc1cnc[nH]1)NC(=O)C(CC(=O)NCCc1ccccc1)Cc1cccc2ccccc12 (single isomer, unassigned) [N-[(+)-2-(1-Naphthylmethyl)-3-(phenethylcarbamoyl)propionyl]-L-histidylstatylmethylamide] | 740 nM | 

Compounds with a lower IC50 (human renin), results first:

Row | IC50 (human renin) | SMILES | other results
10 | 49 nM | COC(=O)C(O)[C@H](CC(C)C)NC(=O)[C@H](Cc1c[nH]cn1)NC(=O)C(CC(=O)NCCc1ccccc1)Cc1cccc2ccccc12 (mixture of isomers) [methyl (2RS, 3S)-3-{N-[(+)-2-(1-naphthylmethyl)-3-(phenethylcarbamoyl)propionyl]-L-histidyl}amino-2-hydroxy-5-methylhexanoate] | Diastolic blood pressure (marmoset; 1 min after injection (control 72)): 56 mm Hg; Systolic blood pressure (marmoset; 1 min after injection (control 103)): 85 mm Hg; Diastolic blood pressure (marmoset; 3 min after injection (control 72)): 61 mm Hg; Systolic blood pressure (marmoset; 3 min after injection (control 103)): 91 mm Hg; Diastolic blood pressure (marmoset; 5 min after injection (control 72)): 62 mm Hg; Systolic blood pressure (marmoset; 5 min after injection (control 103)): 92 mm Hg; Diastolic blood pressure (marmoset; 10 min after injection (control 72)): 70 mm Hg; Systolic blood pressure (marmoset; 10 min after injection (control 103)): 102 mm Hg; Diastolic blood pressure (marmoset; 15 min after injection (control 72)): 72 mm Hg; Systolic blood pressure (marmoset; 15 min after injection (control 103)): 103 mm Hg
11 | 42 nM | CC(C)C[C@H](NC(=O)[C@H](Cc1c[nH]cn1)NC(=O)C(CC(=O)NCCc1ccccc1)Cc1cccc2ccccc12)C(O)C(=O)OCc1ccccc1 (single isomer, unassigned) | 
12 | 61 nM | CC(C)CCOC(=O)C(O)[C@H](CC(C)C)NC(=O)[C@H](Cc1c[nH]cn1)NC(=O)C(CC(=O)NCCc1ccccc1)Cc1cccc2ccccc12 (single isomer, unassigned) | 
13 | 31 nM | COC(=O)[C@H](O)[C@H](CC(C)C)NC(=O)[C@H](Cc1cnc[nH]1)NC(=O)C(CC(=O)NCCc1ccccc1)Cc1cccc2ccccc12 (single isomer, unassigned) | 
14 | 100 nM | CC(C)C[C@H](NC(=O)[C@H](Cc1cnc[nH]1)NC(=O)C(CC(=O)NCCc1ccccc1)Cc1cccc2ccccc12)C(O)C(=O)NCc1ccccc1 (single isomer, unassigned) | 
15 | 250 nM | CC(C)CCNC(=O)C(O)[C@H](CC(C)C)NC(=O)[C@H](Cc1cnc[nH]1)NC(=O)C(CC(=O)NCCc1ccccc1)Cc1cccc2ccccc12 (single isomer, unassigned) | 
16 | 390 nM | CNC(=O)C(O)[C@H](CC(C)C)NC(=O)[C@H](Cc1cnc[nH]1)NC(=O)C(CC(=O)NCCc1ccccc1)Cc1cccc2ccccc12 (single isomer, unassigned) [listing 2 of 2 here] | 
17 | 280 nM | CC(C)CCOCC(O)[C@H](CC(C)C)NC(=O)[C@H](Cc1c[nH]cn1)NC(=O)C(CC(=O)NCCc1ccccc1)Cc1cccc2ccccc12 (single isomer, unassigned) [(2RS, 3S)-3-{N-[(+)-2-(1-Naphthylmethyl)-3-(phenethylcarbamoyl)propionyl]-L-histidyl}amino-2-hydroxy-5-methylhexyl isoamyl ether] | 
18 | 150 nM | CC(C)C[C@H](NC(=O)[C@H](Cc1cnc[nH]1)NC(=O)C(CC(=O)NCCc1ccccc1)Cc1cccc2ccccc12)C(O)CNCc1ccccc1 (single isomer, unassigned) [(2RS, 3S)-N-Benzyl-3-{N-[(+)-2-(1-naphthylmethyl)-3-(phenethylcarbamoyl)propiobnyl]-L-histidyl}amino-2-hydroxyl-5-methylhexylamine] | 
19 | 350 nM | CC(C)CCNCC(O)[C@H](CC(C)C)NC(=O)[C@H](Cc1cnc[nH]1)NC(=O)C(CC(=O)NCCc1ccccc1)Cc1cccc2ccccc12 (single isomer, unassigned) [(2RS, 3S)-N-Isoamyl-3-{N-[(+)-2-(1-naphthylmethyl)-3-(phenethylcarbamoyl)propionyl]-L-histidyl}-amino-2-hydroxy-5-methylhexylamine] | 
20 | 310 nM | COC(=O)C[C@H](O)[C@H](CC(C)C)NC(=O)[C@H](Cc1cnc[nH]1)NC(=O)C(CC(=O)NCCc1ccccc1)Cc1cccc2ccccc12 (single isomer, unassigned) [Methyl N-[(+)-2-(1-naphthylmethyl)-3-(phenethylcarbamoyl)propionyl]-L-histidylstatinate] | 
21 | 72 nM | CC(C)CCNC(=O)C[C@H](O)[C@H](CC(C)C)NC(=O)[C@H](Cc1cnc[nH]1)NC(=O)C(CC(=O)NCCc1ccccc1)Cc1cccc2ccccc12 (single isomer, unassigned) [N-[(+)-2-(1-Naphthylmethyl)-3-(phenethylcarbamoyl)propionyl]-L-histidylstatylisoamylamide] | 
